We go through 14 compounds from patent publication EP2488529B1, “Spirocyclic derivatives as histone deacetylase inhibitors” (DAC S.r.l., priority 2009, dated 2011).

For one experiment, the target named is HDAC. The experiment is described as follows: Assay of enzyme inhibition of HDAC (BIOMOL kit, fluorescence). Format: biochemical. Conditions: nuclear fraction of Hela cells; substrate 200 µM; 15 min at RT. Here is the method: The in-vitro activity of HDAC inhibitors was assayed using a BIOMOL Kit, according to the instructions from the manufacturer (Biomolecular Research Laborator). 15 µl of 30 x diluted nuclear fraction of Hela cells, was diluted to 50 µl with the assay buffer containing the HDAC inhibitor and the substrate (lysine with acetylated amino group on the side chain) at a concentration of 200 µM. The samples were incubated for 15 min at RT and then exposed to a developer (10 min at RT). In this last step a fluorophore was produced, whose fluorescence was measured using an excitation wavelength of 355 nm and an emission at 460 nm. The IC50 was calculated using GraphPad Software.

In another experiment the test system is A549. The experiment is described as follows: Cell growth, CellTiter-Glo Luminescent Cell Viability Assay (antiproliferative assay). In kind it is cell-based. Conditions: A549 cells, incubated for 72 h. From the text:
(§1) CellTiter-Glo® Luminescent Cell Viability Assay (Promega) is a homogeneous method of determining the number of viable cells in culture based on quantitation of the present ATP, which indicates the presence of metabolically active cells. The homogeneous assay procedure involves addition of a single reagent (CellTiter-Glo® Reagent) directly to the cells, which leads to cell lysis and generation of a luminescent signal proportional to the amount of the ATP and the number of cells present in culture. The assay relies on the properties of a proprietary thermostable luciferase (Ultra-Glo® recombinant luciferase), which generates a luminescent signal. K562, A549, and HCT-116 cells, in exponential growth, were incubated for 72 h with different concentrations of the inhibitors. After 72 h, a volume of CellTiter-Glo® Reagent equal to the volume of cell culture medium was added. The content was mixed for 2 min to induce cell lysis. The luminescence was recorded after further 10 min at RT in order to obtain a stable luminescent signal.
(§2) The IC50 was calculated using GraphPad Software.
Background: Cellular ATP, detected with luciferase, serves as a proxy for viable cell number.

The next experiment relates to HCT-116. The description is as above. In kind it is cell-based. Conditions: HCT-116 cells, incubated for 72 h, read-out: HCT116 IC50.
Excerpt: as §1, §2

The next experiment deals with K562. The experiment is described as above. Format: cell-based. Conditions: K562 cells, incubated for 72 h.
Excerpt: as §1, §2

Like-named read-outs stand apart in the source and are kept apart here.

On to `O=C(/C=C/c1ccc2c(c1)C(=O)CC1(CCN(C(=O)c3ccccc3)C1)O2)NO` (racemic) [Example 6, (±)-(E)-3-[1'-Benzoyl-4-oxo-spiro(chromane-2,3'-pyrrolidine)-6-yl]-N-hydroxy-acrylamide], for which the IC50 (as a rule, the concentration that inhibits the measured activity by half) on HDAC is 0.1 to 1 µM; in the experiment on A549 (Homo sapiens), 1 to 3 µM; in the experiment with HCT-116 (Homo sapiens), no more than 1 µM; in the experiment with K562 (Homo sapiens), no more than 1 µM.

Turning to `O=C(/C=C/c1cc(F)c2c(c1)C(=O)CC1(CCN(Cc3ccccc3)CC1)O2)NO` [Example 51, (E)-3-(1'-Benzyl-8-fluoro-4-oxospiro[chroman-2,4'-piperidine]-6-yl)-N-hydroxy-acrylamide], the IC50 on HDAC is 0.1 to 1 µM; in the experiment on A549 (Homo sapiens) it was 1 to 3 µM; in the experiment on HCT-116 (Homo sapiens), no more than 1 µM; in the experiment on K562 (Homo sapiens), no more than 1 µM.

For the compound `Cn1cc(CN2CCC3(CC(=O)c4cc(/C=C/C(=O)NO)ccc4O3)C2)c2ccccc21` (racemic) [Example 10, (±)-(E)-3-[1'-(1-Methyl-1H-indol-3-ylmethyl)-4-oxo-spiro(chromane-2,3'-pyrrolidine)-6-yl]-N-hydroxy-acrylamide], the IC50 is no more than 0.1 µM against HDAC, no more than 1 µM in the experiment with A549 (Homo sapiens), no more than 1 µM with HCT-116 (Homo sapiens) and no more than 1 µM in the experiment on K562 (Homo sapiens).

Consider `O=C(/C=C/c1ccc2c(c1)C(=O)CC1(CCN(Cc3ccccc3)C1)O2)NO` (single isomer, unassigned; (+)) [Example 4, (+)-(E)-3-[1'-Benzyl-4-oxo-spiro(chromane-2,3'-pyrrolidine)-6-yl]-N-hydroxy-acrylamide], for which the IC50 is no more than 0.1 µM against HDAC, no more than 1 µM with A549, no more than 1 µM in the experiment with HCT-116 and no more than 1 µM with K562.

As for `O=C(/C=C/c1ccc2c(c1)C(=O)CC1(CCCN(Cc3ccc(F)cc3)CC1)O2)NO` (racemic) [Example 29, (±)-(E)-3-[1'-(4-Fluoro-benzyl)-4-oxo-spiro(chromane-2,4'-azepane)-6-yl]-N-hydroxy-acrylamide], the IC50 against HDAC was 0.1 to 1 µM; in the experiment on A549 (Homo sapiens), no more than 1 µM; in the experiment on HCT-116 (Homo sapiens), no more than 1 µM; with K562 (Homo sapiens), no more than 1 µM.

Turning to `O=C(/C=C/c1ccc2c(c1)C(=O)CC1(CN(C(=O)c3ccccc3)C1)O2)NO` [Example 37, (E)-3-[1'-Benzoyl-4-oxo-spiro(chromane-2,3'-azetidine)-6-yl]-N-hydroxy-acrylamide], the IC50 against HDAC is no more than 0.1 µM; with A549 (Homo sapiens) it was 1 to 3 µM; in the experiment on HCT-116 (Homo sapiens), no more than 1 µM; in the experiment with K562 (Homo sapiens) it was no more than 1 µM.

On to `O=C(/C=C/c1ccc2c(c1)C(=O)CC1(CCN(CCc3ccccc3)C1)O2)NO` (racemic) [Example 9, (±)-(E)-3-[1'-(2-Phenyl-ethyl)-4-oxo-spiro(chromane-2,3'-pyrrolidine)-6-yl]-N-hydroxy-acrylamide], for which the IC50 at HDAC is no more than 0.1 µM; in the experiment on A549 (Homo sapiens), no more than 1 µM; in the experiment on HCT-116 (Homo sapiens), no more than 1 µM; with K562 (Homo sapiens), no more than 1 µM.

Consider `Cn1cc(CN2CCCC3(CC(=O)c4cc(/C=C/C(=O)NO)ccc4O3)C2)c2ccccc21` (racemic) [Example 45, (±)-(E)-3-[1'-(1-Methyl-1H-indol-3-ylmethyl)-4-oxo-spiro(chromane-2,3'-piperidine)-6-yl]-N-hydroxy-acrylamide], for which the IC50 on HDAC is 0.1 to 1 µM; in the experiment with A549 (Homo sapiens), no more than 1 µM; with HCT-116 (Homo sapiens), no more than 1 µM; in the experiment on K562 (Homo sapiens), no more than 1 µM.

As for `O=C(/C=C/c1ccc2c(c1)C(=O)CC1(CCN(Cc3ccccc3)C1)O2)NO` (racemic) [Example 2, (±)-(E)-3-[1'-Benzyl-4-oxo-spiro(chromane-2,3'-pyrrolidine)-6-yl]-N-hydroxy-acrylamide], the IC50 on HDAC is no more than 0.1 µM; in the experiment on A549 (Homo sapiens) it was no more than 1 µM; with HCT-116 (Homo sapiens) it was no more than 1 µM; in the experiment on K562 (Homo sapiens), no more than 1 µM.

For `O=C(/C=C/c1ccc2c(c1)C(=NOCc1ccccc1)CC1(CCCN(CCc3ccccc3)C1)O2)NO` (centres unmarked) [Example 55, (E)-3-(4-(Benzyloxyimino)-1'-phenethylspiro[chroman-2,3'-piperidine]-6-yl)-N-hydroxyacrylamide], the IC50 on HDAC is no less than 1 µM; in the experiment on A549 (Homo sapiens) it was 1 to 3 µM; in the experiment on HCT-116 (Homo sapiens), no more than 1 µM; in the experiment with K562 (Homo sapiens), no more than 1 µM.

Consider `CCOC(=O)N1CC2(CC(=O)c3cc(/C=C/C(=O)NO)ccc3O2)C1` [Example 38, (E)-3-[1'-Ethyloxycarbonyl-4-oxo-spiro(chromane-2,3'-azetidine)-6-yl]-N-hydroxy-acrylamide], for which the IC50 against HDAC was 0.1 to 1 µM; in the experiment on A549 (Homo sapiens), no less than 3 µM; in the experiment on HCT-116 (Homo sapiens), 1 to 3 µM; with K562 (Homo sapiens), 1 to 3 µM.

With `O=C(/C=C/c1ccc2c(c1)C(=O)CC1(CCCN(C(=O)c3ccccc3)C1)O2)NO` (racemic) [Example 21, (±)-(E)-3-[1'-Benzoyl-4-oxo-spiro(chromane-2,3'-piperidine)-6-yl]-N-hydroxy-acrylamide], the IC50 at HDAC was 0.1 to 1 µM; in the experiment on A549 (Homo sapiens) it was no less than 3 µM; in the experiment on HCT-116 (Homo sapiens), 1 to 3 µM; in the experiment on K562 (Homo sapiens) it was 1 to 3 µM.

For the compound `O=C(/C=C/c1ccc2c(c1)C(=O)NC1(CCCN(Cc3ccc(F)cc3)C1)O2)NO` (racemic) [Example 42, (±)-(E)-3-{1'-(4-Fluoro-benzyl)-3,4-dihydro-4-oxo-spiro[2H-(1,3)-benzoxazine-2,3'-piperidin]-6-yl}-N-hydroxy-acrylamide], the IC50 against HDAC was 0.1 to 1 µM; in the experiment on A549 (Homo sapiens), 1 to 3 µM; with HCT-116 (Homo sapiens) it was no more than 1 µM; with K562 (Homo sapiens), no more than 1 µM.

As for `CCOC(=O)N1CCCC2(CC1)CC(=O)c1cc(/C=C/C(=O)NO)ccc1O2` (racemic) [Example 27, (±)-(E)-3-[1'-Ethyloxycarbonyl-4-oxo-spiro(chromane-2,4'-azepane)-6-yl]-N-hydroxy-acrylamide], the IC50 against HDAC is 0.1 to 1 µM; in the experiment on A549 (Homo sapiens), no less than 3 µM; with HCT-116 (Homo sapiens) it was 1 to 3 µM; in the experiment on K562 (Homo sapiens), 1 to 3 µM.
